In paper PMC4821887, “Identification of chemicals that mimic transcriptional changes associated with autism, brain aging and neurodegeneration” (Nature Communications, 2016):
Like-named read-outs stand apart in the source and are kept apart here.

Test system: mouse cortical neuron cultures

C#CCN1C(=O)COc2cc(F)c(N3C(=O)C4=C(CCCC4)C3=O)cc21 [Flumioxazin]
% Dead cells (vehicle subtracted): 7.054%

CCCCOC(=O)C(C)Oc1ccc(Oc2ccc(C(F)(F)F)cn2)cc1 (stereo not shown) [Fluazifop-butyl]
% Dead cells (vehicle subtracted) (mouse, 24 h, 0.01 µM): 0.215%
% Dead cells (vehicle subtracted) (mouse, 24 h, 0.1 µM): -0.165%
% Dead cells (vehicle subtracted) (mouse, 24 h, 1 µM): 23.9839%
% Dead cells (vehicle subtracted) (mouse, 24 h, 10 µM): 7.788%

c1ccc(Nc2ccccc2)cc1 [Diphenylamine]
% Dead cells (vehicle subtracted) (mouse, 24 h, 10 µM): 2.557%

C[Si](Cn1cncn1)(c1ccc(F)cc1)c1ccc(F)cc1 [Flusilazole]
% Dead cells (vehicle subtracted) (mouse, 24 h, 10 µM): -0.05737%

COP(=O)(OC)O/C(C)=C/C(=O)N(C)C [Dicrotophos]
% Dead cells (vehicle subtracted): -0.1238%

COC(=O)c1ccccc1CS(=O)(=O)NC(=O)Nc1nc(OC)cc(OC)n1 [Bensulfuron-methyl]
% Dead cells (vehicle subtracted) (mouse, 24 h, 10 µM): -2.606%

CC(C)Nc1nc(Cl)nc(NC(C)C)n1
% Dead cells (vehicle subtracted): 0.5652%

CCCOC/C(=N\c1ccc(Cl)cc1C(F)(F)F)n1ccnc1 [Triflumizole]
% Dead cells (vehicle subtracted) (mouse, 24 h, 10 µM): 1.241%

COP(=S)(OC)Oc1ccc([N+](=O)[O-])c(C)c1 [Fenitrothion]
% Dead cells (vehicle subtracted): -1.338%

CCOP(=S)(OCC)SCn1c(=O)oc2cc(Cl)ccc21 [Phosalone]
% Dead cells (vehicle subtracted): 3.318%

CCC(C)Nc1c([N+](=O)[O-])cc(C(C)(C)C)cc1[N+](=O)[O-] (stereo not shown) [Butralin]
% Dead cells (vehicle subtracted) (mouse, 24 h, 10 µM): 4.6194%

COP(=S)(OC)SCn1nnc2ccccc2c1=O [Azinphos-methyl]
% Dead cells (vehicle subtracted): -0.9211%

CCCN(CC)CC1COC2(CCC(C(C)(C)C)CC2)O1 (stereo not shown) [Spiroxamine]
% Dead cells (vehicle subtracted) (mouse, 24 h, 10 µM): 7.8727%

CON(C)C(=O)Nc1ccc(Cl)c(Cl)c1 [Linuron]
% Dead cells (vehicle subtracted): -0.9348%

CC(C)(c1ccc(O)cc1)c1ccc(O)cc1.CC(C)(c1ccc(O)cc1)c1ccc(O)cc1
% Dead cells (vehicle subtracted): 0.9627%

O=C1C2CC=CCC2C(=O)N1SC(Cl)(Cl)Cl (stereo not shown) [Captan]
% Dead cells (vehicle subtracted): 2.374%

COCCO [Methyl cellosolve]
% Dead cells (vehicle subtracted): 2.2057%

CN(C)NC(=O)CCC(=O)O [Daminozide]
% Dead cells (vehicle subtracted): -0.7321%

COC(=O)c1ccccc1C(=O)O [Methyl hydrogen phthalate]
% Dead cells (vehicle subtracted): 1.938%

O=P(O)(O)CCCl [Ethephon]
% Dead cells (vehicle subtracted) (mouse, 24 h, 10 µM): -0.1299%

Clc1cccc(C(Cl)(Cl)Cl)n1 [Nitrapyrin]
% Dead cells (vehicle subtracted) (mouse, 24 h, 10 µM): 0.473%

CCOP(=S)(OCC)Oc1ccc([N+](=O)[O-])cc1 [Parathion]
% Dead cells (vehicle subtracted): -1.193%

C=CCC1=C(C)[C@@H](OC(=O)[C@@H]2[C@@H](C=C(C)C)C2(C)C)CC1=O [S-Bioallethrin]
% Dead cells (vehicle subtracted): -1.697%

CC(COc1ccc(Oc2ccccc2)cc1)Oc1ccccn1 (stereo not shown) [Pyriproxyfen]
% Dead cells (vehicle subtracted) (mouse, 24 h, 10 µM): 1.128%

OC(c1ccc(Cl)cc1)(c1cncnc1)c1ccccc1Cl (stereo not shown) [Fenarimol]
% Dead cells (vehicle subtracted): -1.829%

Clc1ccccc1-c1nnc(-c2ccccc2Cl)nn1 [Clofentezine]
% Dead cells (vehicle subtracted): 0.4977%

COc1cc(OC)nc(NC(=O)[N-]S(=O)(=O)c2ncccc2OCC(F)(F)F)n1.[Na+] [Trifloxysulfuron-sodium]
% Dead cells (vehicle subtracted): 0.5929%

CC(C)N1C(=O)c2ccccc2NS1(=O)=O [Bentazone]
% Dead cells (vehicle subtracted): -0.5905%

CCNP(=S)(OC)O/C(C)=C/C(=O)OC(C)C (stereo not shown) [Propetamphos]
% Dead cells (vehicle subtracted): -0.3061%

Oc1ccc(Cl)cc1Cc1ccccc1 [Clorophene]
% Dead cells (vehicle subtracted): 2.359%

COc1nn(CSP(=S)(OC)OC)c(=O)s1 [Methidathion]
% Dead cells (vehicle subtracted): 0.1761%

CNc1cnn(-c2cccc(C(F)(F)F)c2)c(=O)c1Cl [Norflurazon]
% Dead cells (vehicle subtracted): -0.1097%

COP(=O)(OC)OC=C(Cl)Cl [Dichlorvos]
% Dead cells (vehicle subtracted): 0.4159%

C=CCOC(=O)C(C)(C)OC(=O)c1cc(-n2c(=O)cc(C(F)(F)F)n(C)c2=O)ccc1Cl [Butafenacil]
% Dead cells (vehicle subtracted) (mouse, 24 h, 10 µM): -4.681%

Cc1ccccc1CO[C@@H]1C[C@@]2(C(C)C)CC[C@]1(C)O2 (racemic) [Cinmethylin]
% Dead cells (vehicle subtracted): -0.5547%

CCCC1COC(Cn2cncn2)(c2ccc(Cl)cc2Cl)O1 (stereo not shown) [Propiconazole]
% Dead cells (vehicle subtracted): 0.7517%

CS(=O)(=O)c1cc(C(F)(F)F)ccc1C(=O)c1cnoc1C1CC1 [Isoxaflutole]
% Dead cells (vehicle subtracted) (mouse, 24 h, 10 µM): 2.416%

CCC(CC)Nc1c([N+](=O)[O-])cc(C)c(C)c1[N+](=O)[O-] [Pendimethalin]
% Dead cells (vehicle subtracted): 0.8617%

CC(Oc1ccc(Cl)cc1Cl)C(=O)O (stereo not shown)
% Dead cells (vehicle subtracted): -0.3394%

CS(=O)(=O)c1ccc(C(=O)C2C(=O)CCCC2=O)c([N+](=O)[O-])c1 [Mesotrione]
% Dead cells (vehicle subtracted): 0.1871%

COP(N)(=O)SC (stereo not shown) [Methamidophos]
% Dead cells (vehicle subtracted): -1.5388%

CC1(C)CON(Cc2ccccc2Cl)C1=O [Clomazone]
% Dead cells (vehicle subtracted): -3.452%

CC(C)NC(=O)N1CC(=O)N(c2cc(Cl)cc(Cl)c2)C1=O [Iprodione]
% Dead cells (vehicle subtracted) (mouse, 24 h, 10 µM): 8.376%

O=[N+]([O-])c1c(Cl)c(Cl)c(Cl)c(Cl)c1Cl [Quintozene]
% Dead cells (vehicle subtracted): -2.206%

COc1ccc(-c2ccccc2)cc1NNC(=O)OC(C)C [Bifenazate]
% Dead cells (vehicle subtracted) (mouse, 24 h, 10 µM): 0.1333%

NCCO.O=C(O)c1nc(Cl)ccc1Cl [Clopyralid-olamine]
% Dead cells (vehicle subtracted): 0.5713%

FC(F)C(F)(F)OCC(Cn1cncn1)c1ccc(Cl)cc1Cl (stereo not shown) [Tetraconazole]
% Dead cells (vehicle subtracted) (mouse, 24 h, 10 µM): 2.833%

CC(C)C1(C)N=C(c2nc3ccccc3cc2C(=O)O)NC1=O (stereo not shown) [Imazaquin]
% Dead cells (vehicle subtracted): -2.73%

CCN(CC)C(=O)SCc1ccc(Cl)cc1 [Thiobencarb]
% Dead cells (vehicle subtracted) (mouse, 24 h, 10 µM): -1.522%

CCN(Cc1c(F)cccc1Cl)c1c([N+](=O)[O-])cc(C(F)(F)F)cc1[N+](=O)[O-] [Flumetralin]
% Dead cells (vehicle subtracted): 1.368%

CCNc1nc(NC(C)C)nc(SC)n1 [Ametryn]
% Dead cells (vehicle subtracted) (mouse, 24 h, 10 µM): 0.09019%

CC(C)(C)C(O)C(Oc1ccc(Cl)cc1)n1cncn1 (stereo not shown) [Triadimenol]
% Dead cells (vehicle subtracted) (mouse, 24 h, 10 µM): 2.51%

Cc1[nH]c(=O)n(C(C)(C)C)c(=O)c1Cl [Terbacil]
% Dead cells (vehicle subtracted) (mouse, 24 h, 10 µM): 6.548%

Milbemectin
% Dead cells (vehicle subtracted): 1.383%

CN1COCN(Cc2cnc(Cl)s2)/C1=N\[N+](=O)[O-] [Thiamethoxam]
% Dead cells (vehicle subtracted): 1.407%

Nc1c(Cl)cc([N+](=O)[O-])cc1Cl [Dicloran]
% Dead cells (vehicle subtracted): -0.1169%

CCSC(=O)N(CC)C1CCCCC1 [Cycloate]
% Dead cells (vehicle subtracted) (mouse, 24 h, 10 µM): 2.452%

CCCCN(CC)c1c([N+](=O)[O-])cc(C(F)(F)F)cc1[N+](=O)[O-] [Benfluralin [Benefin]]
% Dead cells (vehicle subtracted): -1.412%

CCc1cnc(C2=NC(C)(C(C)C)C(=O)N2)c(C(=O)O)c1 (stereo not shown) [Imazethapyr]
% Dead cells (vehicle subtracted) (mouse, 24 h, 10 µM): 4.704%

Cc1ccn2nc(S(=O)(=O)Nc3c(F)cccc3F)nc2n1 [Flumetsulam]
% Dead cells (vehicle subtracted) (mouse, 24 h, 10 µM): 0.4495%

CC1COC(Cn2cncn2)(c2ccc(Oc3ccc(Cl)cc3)cc2Cl)O1 (stereo not shown) [Difenoconazole]
% Dead cells (vehicle subtracted): -2.028%

Cc1nn(-c2cc(NS(C)(=O)=O)c(Cl)cc2Cl)c(=O)n1C(F)F [Sulfentrazone]
% Dead cells (vehicle subtracted) (mouse, 24 h, 10 µM): -1.513%

CSc1nc(NC(C)C)nc(NC(C)C)n1 [Prometryn]
% Dead cells (vehicle subtracted) (mouse, 24 h, 10 µM): -5.322%

CN(C)C(=O)Nc1ccc(Cl)c(Cl)c1 [Diuron]
% Dead cells (vehicle subtracted): -0.632%

CCOc1cc(Oc2ccc(C(F)(F)F)cc2Cl)ccc1[N+](=O)[O-] [Oxyfluorfen]
% Dead cells (vehicle subtracted): -3.765%

CC(C1CC1)C(O)(Cn1cncn1)c1ccc(Cl)cc1 (stereo not shown) [Cyproconazole]
% Dead cells (vehicle subtracted) (mouse, 24 h, 0.1 µM): 3.058%
% Dead cells (vehicle subtracted) (mouse, 24 h, 1 µM): 5.165%
% Dead cells (vehicle subtracted) (mouse, 24 h, 10 µM): 6.321%

CCOC(=O)C(Cl)Cc1cc(-n2nc(C)n(C(F)F)c2=O)c(F)cc1Cl (stereo not shown) [Carfentrazone-ethyl]
% Dead cells (vehicle subtracted): 9.785%

CCN(CC)C(=O)C(C)Oc1cccc2ccccc12 (stereo not shown) [Napropamide]
% Dead cells (vehicle subtracted) (mouse, 24 h, 10 µM): -2.444%

COP(=O)(OC)C(O)C(Cl)(Cl)Cl (stereo not shown) [Trichlorfon]
% Dead cells (vehicle subtracted): 2.414%

CC(C)C1(C)N=C(c2ncccc2C(=O)O)NC1=O (stereo not shown) [Imazapyr]
% Dead cells (vehicle subtracted) (mouse, 24 h, 10 µM): 1.122%

CCOP(=S)(OCC)OC(Cl)C(Cl)(Cl)Cl (stereo not shown) [Chlorethoxyfos]
% Dead cells (vehicle subtracted): 0.5415%

CCNc1nc(Cl)nc(NC(C)(C)C#N)n1 [Cyanazine]
% Dead cells (vehicle subtracted): 0.5036%

CCOC(=O)COc1cc(-c2nn(C)c(OC(F)F)c2Cl)c(F)cc1Cl [Pyraflufen-ethyl]
% Dead cells (vehicle subtracted): -2.144%

COc1ccc(C(c2ccc(OC)cc2)C(Cl)(Cl)Cl)cc1 [Methoxychlor]
% Dead cells (vehicle subtracted): -0.6222%

CCOP(=S)(Oc1cnc(C(C)(C)C)nc1)OC(C)C (stereo not shown) [Tebupirimfos]
% Dead cells (vehicle subtracted): 0.1923%

Cl[C@H]1[C@H](Cl)[C@@H](Cl)[C@@H](Cl)[C@H](Cl)[C@H]1Cl [Lindane]
% Dead cells (vehicle subtracted): 3.537%

CNC(=O)N(C)c1nnc(C(C)(C)C)s1 [Tebuthiuron]
% Dead cells (vehicle subtracted): -0.9604%
